{"source": "patent US20240358705A1", "about": "“COMPOSITIONS AND METHODS FOR TREATMENT OF CANCER” (Board of Supervisors of Louisiana State University and …, priority 2021, published 2024)", "key": {"[1]": {"test_system": "human polymorphonuclear leukocytes and macrophages", "conditions": "cited from earlier work"}, "[2]": {"test_system": "macrophages, fibroblasts, myofibroblasts, and epithelial cells", "conditions": "cited from earlier work"}, "[3]": {"conditions": "phase II study; cited from earlier work"}, "[4]": {"conditions": "cited from earlier work"}, "[5]": {"conditions": "model of diet-induced obesity; cited from earlier work"}, "[6]": {"test_system": "CD8 OT-I T cells", "test": "In vivo vaccination antigen titration", "parameters": "species or system mouse; OT-I proliferation response, lymph node: dose or concentration left out as unconfirmed", "method": "C57BL/6N mice were first administered 200 μg cyclophosphamide dissolved in PBS by intraperitoneal injection to induce minor lymphodepletion. 48 hours after lymphodepletion, mice were intravenously adoptively transferred 2×10^6 CFSE labeled CD8 OT-I T cells. Five hours later, mice were vaccinated by 100 μl subcutaneous injection with reducing doses of […] (SEQ ID NO: 1) (Bachem #4033142.0001) in incomplete Freund's adjuvant (IFA) (Thermo #77145). Study ended 96 hours post-vaccination and lymph node tissue was isolated for analysis. Single-cell suspensions of lymph node were stained following the immune profiling by flow cytometry method. Vaccine effectiveness was determined by the percent proliferation of adoptively transferred cells. The sub-optimal vaccine dose was then selected as the amount of antigen that elicited a 50% response."}, "[7]": {"test_system": "pmel-I CD8 T cells", "test": "Cytotoxicity of CRISPR-Cas9 GPR84 knockout pmel-I CD8 T cells", "type": "cell-based, mouse", "method": "CRISPR-Cas9 GPR84 pmel-I T cells were prepared following the CRISPR-Cas9 method. Non-target EL4 cells (CFSE low—0.1 μM) and target EL4gp100 cells (CFSE high—[…]) were prepared. EL4gp100 CFSE high cells were prepared by pulsing EL4 with […] gp100 (Anaspec #AS62589) and incubating for 30 minutes at 37° C., 5% C02. Cells were subsequently washed, pelleted, resuspended at 1×10^6 cells/ml, and mixed at 1:1 ratio. 1×10^5 of the mixed cells were plated into a 96-well round-bottom plate. In technical duplicate or triplicate GPR84 knockout or no target control CD8 […] T cells were added to wells to create an effector to target ratio of 0.5:1, 0.25:1, and 0.12:1 and incubated for 24 hours at 37° C., 5% C02. Cells were then harvested, stained with anti-CD8 to remove the T cell population and the percent specific lysis was captured by flow cytometry.\nIsolated pmel-I splenocytes were plated at a density of 2.5×10^6 in 1 ml of cRPMI-1640 containing 300 ng/ml anti-mouse CD3 (Biolegend #100340, clone 145-2C11), 500 IU/ml IL-2, 5 ng/ml IL-7 (PreproTech #217-17), and 100 ng/ml IL-15 (PreproTech #210-15) into a 24-well plate. Cells were incubated at 37° C., 5% CO2 for 48 hours. Cells were then pelleted and suspended to a concentration of 4×10^5 cells/ml in fresh cRPMI-1640 with 500 IU/ml IL-2 and cultured for an additional 24 hours at 37° C., 5% CO2. Before electroporation, T media was prepared consisting of modified cRPMI-1640 (20% FBS, 500 IU/ml IL-2, and no antibiotics). 615 μl of fresh T media was pipetted into 24-well plates. Preparation of CRISPR-Cas9 complexes and electroporation of primary T cells were conducted following the Alt-R CRISPR-Cas9 system using the Neon Transfection System instructions provided by Integrated DNA Technologies (IDT Coralville, IO). The program used for electroporation consisted of 1600V, 10 ms, and three pulses. […] Cells were counted 48 hours after electroporation and cRPMI-1640 supplemented with 500 IU/ml IL-2 was added to adjust the cell density to 4×10^5 cells/ml. […]"}}, "note": "Entries after “also recorded” stand apart in the source; their conditions may differ. {AltR1} = IDT Alt-R proprietary 5' end modification; {AltR2} = IDT Alt-R proprietary 3' end modification"}
{"molecule": "CCCCCCCCNc1cc(=O)[nH]c(=O)[nH]1", "note": "[6-OAU]", "values": [{"measurement": "chemotaxis", "setting": "[1]", "value": "increase chemotaxis"}]}
{"molecule": "CCCCCc1cccc(CC(=O)O)c1", "note": "[PBI-4050]", "values": [{"measurement": "fibrotic capacity of cells", "setting": "[2]", "value": "reduced fibrotic capacity"}, {"measurement": "glycemic control", "setting": "[2]", "value": "improved glycemic control"}, {"measurement": "HbA1c", "setting": "[3]", "value": "can reduce HbAlc"}, {"measurement": "forced vital capacity", "setting": "[4]; combination therapy with pirfenidone", "value": "worsened forced vital capacity"}, {"measurement": "inflammatory and fibrotic biomarkers", "setting": "[4]; patients treated with PBI-4050", "value": "significant increase in IL-9, IL-7, MIP-Ibeta; also recorded: increase in IL-9, IL-7, MIP-1beta"}, {"measurement": "tolerability", "setting": "[4]; single agent and in combination with nintedanib or pirfenidone, phase II", "value": "well tolerated"}, {"measurement": "ability to increase forced vital capacity", "setting": "[4]; single agent and in combination with nintedanib", "value": "unsuccessful"}]}
{"molecule": "CCCCCc1cc(CCCCC)cc(CC(=O)O)c1", "note": "[PBI-4547]", "values": [{"measurement": "metabolic dysregulation (hyperglycemia and hypertriglyceridemia)", "setting": "[5]", "value": "improved metabolic dysregulation"}]}
{"molecule": "SIINFEKL", "values": [{"measurement": "OT-I proliferation response, predicted", "setting": "[6]; 0.07 g SIINFEKL, selected sub-optimal vaccine dose", "value": 50, "unit": "%"}, {"measurement": "OT-I proliferation, lymph node", "setting": "[6]; first five concentrations of SIINFEKL in IFA, 96 hours", "value": "~100", "unit": "%"}, {"measurement": "OT-I proliferation response, lymph node", "setting": "[6]; in IFA", "value": "below 50%"}]}
{"molecule": "crGPR84: CRISPR-Cas9 guide RNA (SEQ ID NO: 2) used to knock out GPR84 in pmel-I CD8 T cells (guide CUCGAGCACUGGACCAAUACGUUUUAGAGCUAUGCU; RNA, 5' {AltR1}, 3' {AltR2}, backbone not given here)", "values": [{"measurement": "specific lysis of gp100 pulsed EL4 target cells", "setting": "[7]; 0.12:1 effector to target ratio, crNTC 38.6%", "value": 52.3, "unit": "%"}, {"measurement": "specific lysis of gp100 pulsed EL4 target cells", "setting": "[7]; 0.25:1 effector to target ratio, no target control 55.9%", "value": 72.5, "unit": "%"}, {"measurement": "cytotoxicity vs no target control", "setting": "[7]; 0.5:1 effector to target ratio", "value": "did not find a significant difference"}]}
